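Results reflect a 48-hour exposure of cells in 96-well plates to compound at five concentrations. At the GI50, growth is halved. TGI marks complete inhibition of growth.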

Among the test systems are COLO 205 colon; A549 NSCLC; DU-145 prostate; OVCAR-5 ovarian; NCI-H226 lung; SK-MEL-2 melanoma; SK-MEL-5 melanoma; UACC-62 melanoma; SNB-19 CNS; OVCAR-4 ovarian.
Experiment in all cases: NCI anticancer screen, dose series, 48 h

`O=C1CC(C(CC(=O)c2ccccc2)c2ccccc2)C(=O)c2ccccc2N1` (stereo not drawn): the TGI in the assay with COLO 205 colon was over 100 µM; with A549 NSCLC, over 100 µM; with DU-145 prostate, over 100 µM; in the assay on OVCAR-5 ovarian, over 100 µM; in the assay with NCI-H226 lung it was 77.8 µM; in the assay on SK-MEL-2 melanoma, 41.4 µM. Further, the TGI in the assay with SK-MEL-5 melanoma, in the assay with UACC-62 melanoma and with SNB-19 CNS was over 100 µM throughout.
On to `C=C(C)C1CC/C(C)=C/CC[C@]2(C)O[C@@H]2CCC2=CC1OC2=O` (stereo partly drawn), for which the GI50 is over 100 µM in the assay on COLO 205 colon; 23.4 µM in the assay with A549 NSCLC; 18.4 µM in the assay on DU-145 prostate; 0.635 µM in the assay with OVCAR-5 ovarian; over 100 µM in the assay on NCI-H226 lung; 57.5 µM in the assay on SK-MEL-2 melanoma. The GI50 was 78.8 µM in the assay with SK-MEL-5 melanoma, 78.8 µM in the assay with UACC-62 melanoma, over 100 µM in the assay on OVCAR-4 ovarian and over 100 µM in the assay on SNB-19 CNS. Further, the TGI in the assay with COLO 205 colon, in the assay with A549 NSCLC, in the assay with DU-145 prostate, in the assay with OVCAR-5 ovarian, with NCI-H226 lung and with SK-MEL-2 melanoma was over 100 µM throughout. Also, the TGI in the assay on SK-MEL-5 melanoma, in the assay on UACC-62 melanoma, with OVCAR-4 ovarian and in the assay with SNB-19 CNS was over 100 µM throughout.
`Cc1nnc2n(c1=O)CCN2C`: the TGI with COLO 205 colon, with A549 NSCLC, with DU-145 prostate, with OVCAR-5 ovarian, in the assay on NCI-H226 lung and in the assay with SK-MEL-2 melanoma was over 100 µM each time. Moreover, the TGI in the assay on SK-MEL-5 melanoma, in the assay with UACC-62 melanoma, in the assay with OVCAR-4 ovarian and in the assay with SNB-19 CNS was over 100 µM throughout.
Regarding `CCN(CC)CCCNC(=O)c1cc2cc(NC(=O)c3cc4cc([N+](=O)[O-])ccc4[nH]3)ccc2[nH]1`, the TGI in the assay on COLO 205 colon, in the assay on A549 NSCLC, with DU-145 prostate, with OVCAR-5 ovarian, with NCI-H226 lung and in the assay with SK-MEL-2 melanoma was over 100 µM throughout. For the same compound, the TGI with SK-MEL-5 melanoma is over 100 µM; in the assay on UACC-62 melanoma, 96.3 µM; with OVCAR-4 ovarian, over 100 µM; in the assay on SNB-19 CNS, over 100 µM.
Consider `C=C1[C@@](C)([C@@H]2CCCS2)[C@H]2C(C)=C[C@]1(C)n1c(=O)n(-c3ccccc3)c(=O)n12`, for which the TGI with COLO 205 colon, with A549 NSCLC, with DU-145 prostate, with OVCAR-5 ovarian, in the assay on NCI-H226 lung and in the assay on SK-MEL-2 melanoma was over 100 µM throughout. Also, the TGI with SK-MEL-5 melanoma, in the assay on UACC-62 melanoma, with OVCAR-4 ovarian and with SNB-19 CNS was over 100 µM in each case.
Consider `OCC(CCc1ccccc1I)C1=CCC2(CC1)OCCO2` (stereo not drawn), for which the TGI amounted to 34.6 µM in the assay with COLO 205 colon; 62.4 µM in the assay with A549 NSCLC; 48 µM with DU-145 prostate; 34.1 µM in the assay on OVCAR-5 ovarian; 88.2 µM in the assay with NCI-H226 lung; 51 µM in the assay on SK-MEL-2 melanoma. The TGI was found to be 27.8 µM with SK-MEL-5 melanoma, 35.6 µM in the assay with UACC-62 melanoma, 69.9 µM in the assay with OVCAR-4 ovarian and 37.7 µM with SNB-19 CNS.
With `COC(=O)[C@@](C)(COC(=O)C(C)(C)C)NC(=O)OC(C)(C)C`, the TGI in the assay with COLO 205 colon, in the assay on A549 NSCLC, in the assay with DU-145 prostate, with OVCAR-5 ovarian, in the assay with NCI-H226 lung and with SK-MEL-2 melanoma was over 100 µM in each case. Moreover, the TGI in the assay with SK-MEL-5 melanoma, with UACC-62 melanoma, with OVCAR-4 ovarian and with SNB-19 CNS was over 100 µM throughout.
Regarding `COC(=O)CCc1c(Cc2ccc[nH]2)[nH]c(C(=O)OCc2ccccc2)c1C`, the TGI with COLO 205 colon was 32.9 µM; in the assay with A549 NSCLC, over 100 µM; in the assay with DU-145 prostate, over 100 µM; in the assay with OVCAR-5 ovarian, over 100 µM; with NCI-H226 lung, 35.4 µM; in the assay with SK-MEL-2 melanoma it was 33.7 µM. Besides, the TGI in the assay with SK-MEL-5 melanoma was determined as 29.2 µM; in the assay on UACC-62 melanoma, 66.8 µM; in the assay with OVCAR-4 ovarian, 34 µM; with SNB-19 CNS it was 85.8 µM.
For `NC(=O)c1cc(N(CCO)CCO)c([N+](=O)[O-])cc1[N+](=O)[O-]`, the TGI in the assay with COLO 205 colon, in the assay on A549 NSCLC, in the assay with DU-145 prostate, with OVCAR-5 ovarian, in the assay with NCI-H226 lung and in the assay on SK-MEL-2 melanoma was over 100 µM each time. Besides, the TGI with SK-MEL-5 melanoma, in the assay on UACC-62 melanoma, in the assay on OVCAR-4 ovarian and with SNB-19 CNS was over 100 µM throughout.
Consider `CC(=O)OC12c3ccccc3C(c3ccccc31)C1C(=O)N(c3ccccn3)C(=O)C12` (stereo not drawn), for which the TGI in the assay on COLO 205 colon, in the assay with A549 NSCLC, in the assay on DU-145 prostate, with OVCAR-5 ovarian, in the assay on NCI-H226 lung and in the assay on SK-MEL-5 melanoma was over 100 µM each time. The TGI in the assay on UACC-62 melanoma, with OVCAR-4 ovarian and in the assay on SNB-19 CNS was over 100 µM throughout.
Turning to `C[N+](C)(C)C=Nc1cccc2c1CCCC2`, the TGI in the assay with COLO 205 colon, in the assay on A549 NSCLC, in the assay with DU-145 prostate, with OVCAR-5 ovarian, in the assay on NCI-H226 lung and with SK-MEL-2 melanoma was over 100 µM throughout. Besides, the TGI with SK-MEL-5 melanoma, in the assay with UACC-62 melanoma, in the assay with OVCAR-4 ovarian and with SNB-19 CNS was over 100 µM in each case.
Take `CCOC(=O)NNC(=O)NCc1ccccc1CNC(=O)NNC(=O)OCC`: the TGI in the assay with COLO 205 colon, in the assay with A549 NSCLC, with DU-145 prostate, in the assay on OVCAR-5 ovarian, in the assay with NCI-H226 lung and in the assay on SK-MEL-2 melanoma was over 100 µM each time. Besides, the TGI in the assay on SK-MEL-5 melanoma, in the assay with UACC-62 melanoma, in the assay on OVCAR-4 ovarian and with SNB-19 CNS was over 100 µM each time.

The values are drawn from PubChem BioAssay (NCI).
